In patent publication US11578087B2, “Oxaborole esters and uses thereof” (priority 2016, dated 2023) one finds IC50 data, which are given here for 28 compounds.

Assay [1] deals with T. cruzi amastigote (Td Tomato-modified) in Vero cells. As to the kind of experiment: In vitro IC50 measurement of T. cruzi amastigote killing using Td Tomato-modified T. cruzi. The conditions noted are these: Trypanosoma cruzi, 72 h, fluorescence, read-out: IC50: I Org. amastigote Growth T. cruzi 3 d. It counts as cell-based. Summed up: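 IC50/IC90 came from nonlinear regression of Day 3 minus Day 0 fluorescence (544/612 nm), correcting for input parasites. Final compound concentrations spanned 5 nM–5 uM on Td Tomato T. cruzi-infected Vero cells, 72 h at 37 °C.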

The subject of assay [2] is IL3000 T. congolense (drug sensitive) strain. As to the kind of experiment: In vitro Alamar Blue 72 h drug sensitivity assay for T. congolense. The format is cell-based, Trypanosoma congolense. The conditions noted are these: Trypanosoma congolense, 72 h, bloodstream form, 69 h + 3 h Resazurin, 34° C., read-out: IC50: I Org. Growth T. congolense 3 d. Put shortly: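 IC50 values derive from 11-point curves averaged over at least three independent runs, with fluorescence read at 536 nm excitation and 588 nm emission. Resazurin was added for a final 3 h after 69 h compound exposure of bloodstream forms (HMI medium, 20% bovine serum, 34° C, 5% CO2).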
(In general: The colour change of resazurin is a common sign of viable cells or microbes.)

As to `Cc1c(C(=O)N[C@H](C(=O)OCC(CO)CO)C(C)C)ccc2c1B(O)OC2` [Example 6-149, 3-hydroxy-2-(hydroxymethyl)propyl (1-hydroxy-7-methyl-1,3-dihydrobenzo[c][1,2]oxaborole-6-carbonyl)-L-valinate], the IC50 in assay [1] was at least 1000 nM; in assay [2] it was 10 to 5000 nM.

For `COCC(COC)OC(=O)[C@@H](NC(=O)c1ccc2c(c1C)B(O)OC2)C(C)C` [Example 6-139, 1,3-Dimethoxypropan-2-yl (1-hydroxy-7-methyl-1,3-dihydrobenzo[c][1,2]oxaborole-6-carbonyl)-L-valinate], the IC50 in assay [1] was 21 to 999 nM; in assay [2], 10 to 5000 nM.

With `Cc1c(C(=O)N[C@H](C(=O)OCc2cccc(C#N)c2)C(C)C)ccc2c1B(O)OC2` [Example 6-047, 3-Cyanobenzyl (1-hydroxy-7-methyl-1,3-dihydrobenzo[c][1,2]oxaborole-6-carbonyl)-L-valinate], the IC50 in assay [1] is at most 20 nM; in assay [2], under 0.5 nM.

Turning to `CCCc1c(C(=O)N[C@H](C(=O)OCc2ccccc2)C(C)C)ccc2c1B(O)OC2` [Example 6-065, Benzyl (1-hydroxy-7-propyl-1,3-dihydrobenzo[c][1,2]oxaborole-6-carbonyl)-L-valinate], the IC50 in assay [1] was in the range of 21 to 999 nM; in assay [2], 0.51 to 9.99 nM.

In the case of `Cc1c(C(=O)N[C@H](C(=O)OCC(C)N2CCOCC2)C(C)C)ccc2c1B(O)OC2` (stereo partly drawn) [Example 6-207, 2-morpholinopropyl (1-hydroxy-7-methyl-1,3-dihydrobenzo[c][1,2]oxaborole-6-carbonyl)-L-valinate], the results for the IC50 in assay [1] and in assay [2] were 21 to 999 nM and 0.51 to 9.99 nM, respectively.

Regarding `Cc1c(C(=O)N[C@H](C(=O)OCCN2CC(C)OC(C)C2)C(C)C)ccc2c1B(O)OC2` (stereo partly drawn) [Example 6-206, 2-(2,6-dimethylmorpholino)ethyl (1-hydroxy-7-methyl-1,3-dihydrobenzo[c][1,2]oxaborole-6-carbonyl)-L-valinate], the IC50 in assay [1] is 21 to 999 nM; in assay [2] it was under 0.5 nM.

`Cc1c(C(=O)N[C@H](C(=O)OCCc2ccc(F)cc2)C(C)C)ccc2c1B(O)OC2` [Example 6-121, 4-Fluorophenethyl (1-hydroxy-7-methyl-1,3-dihydrobenzo[c][1,2]oxaborole-6-carbonyl)-L-valinate]: the figures for the IC50 in assay [1] and in assay [2] were at most 20 nM and under 0.5 nM, respectively.

In the case of `Cc1c(C(=O)N[C@H](C(=O)OCCN2CCOC2=O)C(C)C)ccc2c1B(O)OC2` [Example 6-216, 2-(2-oxooxazolidin-3-yl)ethyl (1-hydroxy-7-methyl-1,3-dihydrobenzo[c][1,2]oxaborole-6-carbonyl)-L-valinate], the IC50 in assay [1] is at least 1000 nM; in assay [2], 10 to 5000 nM.

Turning to `CC(C)[C@H](NC(=O)c1ccc2c(c1C1CC1)B(O)OC2)C(=O)OCc1ccccc1` [Example 6-058, Benzyl (7-cyclopropyl-1-hydroxy-1,3-dihydrobenzo[c][1,2]oxaborole-6-carbonyl)-L-valinate], the IC50 in assay [1] was at least 1000 nM; in assay [2], under 0.5 nM.

Turning to `Cc1c(C(=O)N[C@H](C(=O)OC[C@@H]2COC(C)(C)O2)C(C)C)ccc2c1B(O)OC2` [Example 6-145, ((S)-2,2-Dimethyl-1,3-dioxolan-4-yl)methyl (1-hydroxy-7-methyl-1,3-dihydrobenzo[c][1,2]oxaborole-6-carbonyl)-L-valinate], the IC50 in assay [1] was at most 20 nM; in assay [2], 0.51 to 9.99 nM.

Consider `Cc1c(C(=O)N[C@H](C(=O)OC[C@H]2CCCO2)C(C)C)ccc2c1B(O)OC2` [Example 6-215, ((R)-tetrahydrofuran-2-yl)methyl (1-hydroxy-7-methyl-1,3-dihydrobenzo[c][1,2]oxaborole-6-carbonyl)-L-valinate], for which the IC50 in assay [1] is at most 20 nM; in assay [2], under 0.5 nM.

For `Cc1c(C(=O)N[C@H](C(=O)OCc2ccccc2)C(C)C)ccc2c1B(O)OC2` [Example 6-038, Benzyl (1-hydroxy-7-methyl-1,3-dihydrobenzo[c][1,2]oxaborole-6-carbonyl)-L-valinate], the IC50 in assay [1] was at most 20 nM; in assay [2], under 0.5 nM.

For the compound `Cc1c(C(=O)N[C@H](C(=O)OCc2ccc(NS(C)(=O)=O)cc2)C(C)C)ccc2c1B(O)OC2` [Example 6-075, 4-(Methylsulfonamido)benzyl (1-hydroxy-7-methyl-1,3-dihydrobenzo[c][1,2]oxaborole-6-carbonyl)-L-valinate], the results for the IC50 in assay [1] and in assay [2] were at least 1000 nM and 10 to 5000 nM, respectively.

As to `Cc1c(C(=O)N[C@H](C(=O)OCc2ccc(C(F)(F)F)cc2)C(C)C)ccc2c1B(O)OC2` [Example 6-041, 4-Trifluoromethylbenzyl (1-hydroxy-7-methyl-1,3-dihydrobenzo[c][1,2]oxaborole-6-carbonyl)-L-valinate], the IC50 in assay [1] was at most 20 nM; in assay [2], under 0.5 nM.

As for `Cc1c(C(=O)N[C@H](C(=O)OCc2ccc(CN3CCCC3)cc2)C(C)C)ccc2c1B(O)OC2` [Example 6-131, 4-(Pyrrolidin-1-ylmethyl)benzyl (1-hydroxy-7-methyl-1,3-dihydrobenzo[c][1,2]oxaborole-6-carbonyl)-L-valinate], the IC50 in assay [1] was 21 to 999 nM; in assay [2] it was under 0.5 nM.

With `Cc1c(C(=O)N[C@H](C(=O)OCc2cnccn2)C(C)C)ccc2c1B(O)OC2` [Example 6-186, Pyrazin-2-ylmethyl (1-hydroxy-7-methyl-1,3-dihydrobenzo[c][1,2]oxaborole-6-carbonyl)-L-valinate], the IC50 lay in the range of 21 to 999 nM in assay [1] and 0.51 to 9.99 nM in assay [2].

With `CC(C)[C@H](NC(=O)c1ccc2c(c1C(F)(F)F)B(O)OC2)C(=O)OCc1ccccc1` [Example 6-071, Benzyl (1-hydroxy-7-(trifluoromethyl)-1,3-dihydrobenzo[c][1,2]oxaborole-6-carbonyl)-L-valinate], the figures for the half-maximal inhibitory concentration (IC50) in assay [1] and in assay [2] were 21 to 999 nM and 10 to 5000 nM, respectively.

On to `Cc1c(C(=O)N[C@H](C(=O)OCc2ccc(F)cc2)[C@H](C)OCc2ccc(F)cc2)ccc2c1B(O)OC2` [Example 6-097, 4-Fluorobenzyl O-(4-fluorobenzyl)-N-(1-hydroxy-7-methyl-1,3-dihydrobenzo[c][1,2]oxaborole-6-carbonyl)-L-allothreoninate], for which the figures for the IC50 in assay [1] and in assay [2] were 21 to 999 nM and 0.51 to 9.99 nM, respectively.

For `Cc1c(C(=O)N[C@H](C(=O)OCc2ccc(F)c(OCCN3CCCC3)c2)C(C)C)ccc2c1B(O)OC2` [Example 6-245, 4-Fluoro-3-(2-(pyrrolidin-1-yl)ethoxy)benzyl (1-hydroxy-7-methyl-1,3-dihydrobenzo[c][1,2]oxaborole-6-carbonyl)-L-valinate], the IC50 is 21 to 999 nM in assay [1] and 0.51 to 9.99 nM in assay [2].

Consider `Cc1c(C(=O)N[C@H](C(=O)OCC(F)(F)C(F)(F)F)C(C)C)ccc2c1B(O)OC2` [Example 6-153, 2,2,3,3,3-Pentafluoropropyl (1-hydroxy-7-methyl-1,3-dihydrobenzo[c][1,2]oxaborole-6-carbonyl)-L-valinate], for which the IC50 in assay [1] was at most 20 nM; in assay [2], under 0.5 nM.

For `Cc1c(C(=O)N[C@H](C(=O)OCC2CCCC2)C(C)(C)O)ccc2c1B(O)OC2` [Example 6-228, Cyclopentylmethyl (S)-3-hydroxy-2-(1-hydroxy-7-methyl-1,3-dihydrobenzo[c][1,2]oxaborole-6-carboxamido)-3-methylbutanoate], the results for the IC50 in assay [1] and in assay [2] were 21 to 999 nM and under 0.5 nM, respectively.

Consider `CC(C)[C@H](NC(=O)c1ccc2c(c1)B(O)OC2)C(=O)O[C@@H](C)c1ccccc1` [Example 6-023, (S)-1-Phenylethyl (1-hydroxy-1,3-dihydrobenzo[c][1,2]oxaborole-6-carbonyl)-L-valinate], for which the IC50 was at least 1000 nM in assay [1] and 10 to 5000 nM in assay [2].

In the case of `Cc1c(C(=O)N[C@H](C(=O)OCC2COCCOC2)C(C)C)ccc2c1B(O)OC2` [Example 6-157, (1,4-Dioxepan-6-yl)methyl (1-hydroxy-7-methyl-1,3-dihydrobenzo[c][1,2]oxaborole-6-carbonyl)-L-valinate], the concentration for half-maximal inhibition (IC50) in assay [1] is 21 to 999 nM; in assay [2], under 0.5 nM.

On to `Cc1c(C(=O)N[C@H](C(=O)OCc2cccc(CN3CCCC3)c2)C(C)C)ccc2c1B(O)OC2` [Example 6-113, 3-(Pyrrolidin-1-ylmethyl)benzyl (1-hydroxy-7-methyl-1,3-dihydrobenzo[c][1,2]oxaborole-6-carbonyl)-L-valinate], for which the results for the IC50 in assay [1] and in assay [2] were at most 20 nM and under 0.5 nM, respectively.

Consider `Cc1c(C(=O)N[C@H](C(=O)OCc2ccc(F)cc2)C2CCC2)ccc2c1B(O)OC2` [Example 6-059, 4-Fluorobenzyl (S)-2-cyclobutyl-2-(1-hydroxy-7-methyl-1,3-dihydrobenzo[c][1,2]oxaborole-6-carboxamido)acetate], for which the IC50 in assay [1] lay in the range of 21 to 999 nM; in assay [2] it was 0.51 to 9.99 nM.

`Cc1c(C(=O)N[C@H](C(=O)OCc2ccncc2)C(C)C)ccc2c1B(O)OC2` [Example 6-190, Pyridin-4-ylmethyl (1-hydroxy-7-methyl-1,3-dihydrobenzo[c][1,2]oxaborole-6-carbonyl)-L-valinate]: the IC50 fell in the range of 21 to 999 nM in assay [1] and 0.51 to 9.99 nM in assay [2].

Take `Cc1c(C(=O)N[C@H](C(=O)OCc2ccc(F)cc2)[C@@H](C)OCc2ccccc2)ccc2c1B(O)OC2` [Example 6-077, 4-Fluorobenzyl O-benzyl-N-(1-hydroxy-7-methyl-1,3-dihydrobenzo[c][1,2]oxaborole-6-carbonyl)-L-threoninate]: the IC50 in assay [1] is at most 20 nM; in assay [2], 0.51 to 9.99 nM.

With `Cc1c(C(=O)N[C@H](C(=O)OCc2ccnc(C(F)(F)F)n2)C(C)C)ccc2c1B(O)OC2` [Example 6-160, (2-(Trifluoromethyl)pyrimidin-4-yl)methyl (1-hydroxy-7-methyl-1,3-dihydrobenzo[c][1,2]oxaborole-6-carbonyl)-L-valinate], the results for the half-maximal inhibitory concentration (IC50) in assay [1] and in assay [2] were 21 to 999 nM and under 0.5 nM, respectively.

By IC50 is commonly meant the concentration that gives 50% inhibition.
